# Legend:
# Assay type in all cases: cell-based
# S. aureus (ATCC 29213) = assay: Antibacterial susceptibility testing (MIC, broth microdilution or agar dilution), S. aureus; details: Staphylococcus aureus, ATCC29213; read-out: S. aureus (ATCC 29213) minimal inhibitory concentration (MIC)
# Outline: (§1)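 MICs by CLSI (M7-A7) broth microdilution or agar dilution, against reference ATCC strains as listed.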
# E. faecalis (ATCC 29212) = assay: Antibacterial susceptibility testing (MIC, broth microdilution or agar dilution), E. faecalis; details: Enterococcus faecalis, ATCC29212; read-out: E. faecalis (ATCC 29212) minimal inhibitory concentration (MIC)
# Outline: as §1
# S. pyogenes (ATCC 51339) = assay: Antibacterial susceptibility testing (MIC, broth microdilution or agar dilution), S. pyogenes; details: Streptococcus pyogenes, ATCC51339; read-out: S. pyogenes (ATCC 51339) minimal inhibitory concentration (MIC)
# Outline: as §1
# [1] = tested on: H. influenzae (ATCC 49247); assay: Antibacterial susceptibility testing (MIC, broth microdilution or agar dilution), H. influenzae; details: Haemophilus influenzae, ATCC49247; read-out: H. influenzae (ATCC 49247) minimal inhibitory concentration (MIC)
# Procedure: Compounds of the invention were tested for antimicrobial activity by susceptibility testing in liquid or on solid media. MICs for compounds against each strain were determined by the broth microdilution or agar dilution method according to the guidelines of the Clinical Laboratories and Standards Institute, formerly the National Committee for Clinical Laboratory Standards (Clinical Laboratories and Standards Institute. Methods for Dilution Antimicrobial Susceptibility Tests for Bacteria That Grow Aerobically; Approved Standard—Seventh Edition. Document M7-A7. CLSI, Wayne, Pa., 2006; Clinical Laboratories and Standards Institute. The Gram positive bacterial strains tested include S. aureus (Staphylococcus aureus (Isolate ID ATCC 29213)), E. faecalis (Enterococcus faecalis (Isolate ID ATCC 29212)) and S. pyogenes (Streptococcus pyogenes (Isolate ID ATCC 51339)). The Gram negative bacterial strains tested include H. influenzae (Haemophilus influenzae (Isolate ID ATCC 49247)).
SMILES,MIC (S. aureus (ATCC 29213)),MIC (E. faecalis (ATCC 29212)),MIC (S. pyogenes (ATCC 51339)),MIC [1]
"CCNC(=O)Nc1cc(Nc2cc(Cl)cc(Cl)c2)c(C(=O)Nc2ccc(CCC(=O)O)cc2)cn1 [Compound 228, 3-{4-[({4-[(3,5-dichlorophenyl)amino]-6-[(ethylcarbamoyl)amino]pyridin-3-yl}carbonyl)amino]phenyl}propanoic acid]",≤ 1 µg/mL,≤ 1 µg/mL,≤ 1 µg/mL,≤ 1 µg/mL
"CCNC(=O)Nc1cc(Nc2cc(F)cc(F)c2)c(C(=O)Nc2ccc(CCC(=O)O)cc2)cn1 [Compound 235, 3-{4-[({4-[(3,5-difluorophenyl)amino]-6-[(ethylcarbamoyl)amino]pyridin-3-yl}carbonyl)amino]phenyl}propanoic acid]",≤ 1 µg/mL,≤ 1 µg/mL,≤ 1 µg/mL,4 µg/mL

# Next, values leading:
MIC (S. aureus (ATCC 29213)),MIC (E. faecalis (ATCC 29212)),MIC (S. pyogenes (ATCC 51339)),MIC [1],SMILES
≤ 1 µg/mL,≤ 1 µg/mL,≤ 1 µg/mL,≤ 1 µg/mL,"CCNC(=O)Nc1cc(Nc2cccc(F)c2)c(C(=O)Nc2ccc(CCC(=O)O)cc2)cn1 [Compound 221, 3-{4-[({6-[(ethylcarbamoyl)amino]-4-[(3-fluorophenyl)amino]pyridin-3-yl}carbonyl)amino]phenyl}propanoic acid]"
≤ 1 µg/mL,≤ 1 µg/mL,≤ 1 µg/mL,≤ 1 µg/mL,"CCNC(=O)Nc1cc(Nc2ccc(Cl)cc2F)c(C(=O)Nc2ccc(CCC(=O)O)cc2)cn1 [Compound 224, 3-{4-[({4-[(4-chloro-2-fluorophenyl)amino]-6-[(ethylcarbamoyl)amino]pyridin-3-yl}carbonyl)amino]phenyl} propanoic acid]"
≤ 1 µg/mL,≤ 1 µg/mL,≤ 1 µg/mL,≤ 1 µg/mL,"CCNC(=O)Nc1cc(Nc2ccc(F)c(Cl)c2)c(C(=O)Nc2ccc(CCC(=O)O)cc2)cn1 [Compound 229, 3-{4-[({4-[(3-chloro-4-fluorophenyl)amino]-6-[(ethylcarbamoyl)amino]pyridin-3-yl}carbonyl)amino]phenyl}propanoic acid]"

# From patent publication US9060515B2, “Heterocyclic urea compounds” (BIOTA EUROPE LTD, priority 2011, dated 2015)
